Measurements taken from ChEMBL document CHEMBL4145596, “Design, Synthesis, and X-ray of Selenides as New Class of Agents for Prevention of Diabetic Cerebrovascular Pathology” (ACS Med Chem Lett, 2018).
Calls of active or inactive are those of the source. The calls are words filed in the database; no cut-off is given here.

Key:
[1] = biological target: Carbonic anhydrase 9 (Homo sapiens, UniProt Q16790)
Description: Inhibition of human carbonic anhydrase 9 after 15 mins by stopped flow carbon dioxide hydration assay

[2] = tested on: RBE4; assay: Cytotoxicity against rat RBE4 cells assessed as mortality at 10 uM after 24 hrs by MTT assay; assay type: cell-based; conditions: rbe4, 24 h
[3] = tested on: RBE4; assay: Protection against glucose oxidase-induced oxidative stress in rat RBE4 cells assessed as increase in cell viability at 100 uM cotreated with glucose oxidase for 1 hr measured after 24 hrs by MTT assay; assay type: functional, cell-based
[4] = tested on: RBE4; assay: Protection against glucose oxidase-induced oxidative stress in rat RBE4 cells assessed as increase in cell viability at 10 to 100 uM cotreated with glucose oxidase for 1 hr measured after 24 hrs by MTT assay; assay type: functional, cell-based
[5] = tested on: RBE4; assay: Cytotoxicity against rat RBE4 cells assessed as mortality at 30 uM after 24 hrs by MTT assay; assay type: cell-based; conditions: rbe4, 24 h

**Q.** For `NS(=O)(=O)c1ccc([Se]C2CCCCC2)cc1`, which Ki [1] is on record?
**A.** Its Ki is 2.6 nM.

**Q.** How did the Ki [1] turn out when `C[Se]c1ccc(S(N)(=O)=O)cc1` was run?
**A.** The Ki was 2.7 nM.

**Q.** For `NS(=O)(=O)c1ccc(C[Se]c2ccccc2)cc1`, which Ki [1] is on record?
**A.** Its Ki is 2.7 nM.

**Q.** `COCC[Se]c1ccc(S(N)(=O)=O)cc1` was tested. Which Ki [1] did it give?
**A.** The Ki was 12 nM.

**Q.** And the Activity [2]?
**A.** The Activity was “Non-Toxic”.

**Q.** And the Activity [3]?
**A.** The Activity was “Active”.

**Q.** What does the source list for `CC(C)[Se]c1ccc(S(N)(=O)=O)cc1`?
**A.** Ki [1]: 2.4 nM; Activity [2]: Non-Toxic; Activity [4]: inactive

**Q.** Which Ki [1] does the source give for `C#CC[Se]c1ccc(S(N)(=O)=O)cc1` here?
**A.** Its Ki is 2.7 nM.

**Q.** Which Ki [1] does the source give for `NS(=O)(=O)c1ccc([Se]CCc2ccccc2)cc1` here?
**A.** The Ki was 8.7 nM.

**Q.** Which results are given for `CCCCC[Se]c1ccc(S(N)(=O)=O)cc1`?
**A.** Ki [1]: 2.6 nM; Activity [2]: Non-Toxic; Activity [4]: inactive

**Q.** `CC#CC[Se]c1ccc(S(N)(=O)=O)cc1` was tested. Which Ki [1] did it give?
**A.** Its Ki is 2.2 nM.

**Q.** For `NS(=O)(=O)c1ccc([Se][Se]c2ccc(S(N)(=O)=O)cc2)cc1`, which mortality [5] is on record?
**A.** The mortality was 50%.

**Q.** With `NS(=O)(=O)c1ccc([Se]CCO)cc1` as the compound, how does the Ki [1] read?
**A.** Its Ki is 2.4 nM.

**Q.** And the Activity [2]?
**A.** Its Activity is “Non-Toxic”.

**Q.** And the Activity [4]?
**A.** The Activity was “inactive”.

**Q.** For `C=CC[Se]c1ccc(S(N)(=O)=O)cc1`, which Ki [1] is on record?
**A.** The Ki was 2.6 nM.
